Data set [1] concerns human renal proximal tubular cells HK-2. Description: LDH cytotoxicity test under BSO oxidative stress. To be noted: 48 hours. Type of data set: cell-based. Here is the method:
(§1) Human renal proximal tubular cells (HK-2) were subcultured using Dulbecco's Modified Eagle's Medium (DMEM, NACALAI TESQUE, INC.) containing 10% fetal bovine serum and 1% penicillin-streptmycin in a 5% CO2 incubator at 37° C.
(§2) In order to confirm the cytoprotective action of DHMBA on human renal proximal tubular cells HK-2 against oxidative stress, an oxidative stress inducer buthionine sulfoximine (BSO) was used to assess the toxicity and viability of the cells.
(§3) Specifically, the HK-2 cells were seeded into a 96-well plate to be 3.0×10^3 cells/well and cultured for 24 hours.
(§4) Next, BSO and DHMBA were added in an amount of 150 μL/well to have a final concentration of BSO of 100 μM and a final concentration of DHMBA of 1 μM to 500 μM. […] After the plate was allowed to stand for 30 minutes at room temperature, the absorbance at 490 nm was measured using a plate reader (Wallac 1420 ARVO Mx plate reader, PerkinElmer) to measure the cytotoxicity. In addition, a CCK-8 reagent (DOJINDO LABORATORIES) was added in an amount of 10 μL/well to the plate where the cells had been cultured, and after two hours of culture at 37° C., the absorbance at 450 nm was measured using a plate reader (Wallac 1420 ARVO Mx plate reader) to assess the viability of the cells. The toxicity and viability of the cells were calculated from the absorbance value relative to the control (0 μg/mL) (n=5 to 6 for each group).

Data set [2] shares this test system. The data set is described as follows: CCK-8 cell viability test under BSO oxidative stress. Format: cell-based. To be noted: 48 hours. On the procedure:
as §1, §2, §3, §4
Background: Formazan colour is commonly taken as a measure of viable cells.

Data set [3] has as its system intracellular ROS in HK-2 cells. Description: Intracellular ROS production level (DCFDA staining). Type of data set: cell-based, human. To be noted: 24 hours. Here is the method: The production level of intracellular ROS was measured to assess changes in intracellular ROS by DHMBA under oxidative stress stimulation.
The HK-2 cells were seeded into a black 96-well plate to be 3.0×10^3 cells/well and cultured for 24 hours. Next, BSO and DHMBA were added in an amount of 100 μL/well to have a final concentration of BSO of 100 μM and a final concentration of DHMBA of 250 μM and 500 μM. After 24 hours, a supernatant was removed, a DCFDA reagent (Sigma) diluted to 25 μM with serum-free DMEM was added in an amount of 100 μL/well, and the cells were cultured at 37° C. for 40 minutes. Furthermore, after the cells were washed with PBS, PBS was added in an amount of 100 μL/well, and fluorescence was measured using a plate reader (Wallac 1420 ARVO Mx plate reader) at an excitation wavelength of 485 nm and a fluorescence wavelength of 535 nm (n=6 for each group) and observed and photographed with a fluorescence microscope BZ-9000 (Keyence).

Data set [4] has as its system intramitochondrial ROS in HK-2 cells. The data set is described as follows: Intramitochondrial ROS production level (DHR123 staining). Format: cell-based, human. Particulars: 24 hours. On the procedure: In order to verify the effect of DHMBA on the production of intramitochondrial ROS promoted by oxidative stress stimulation, the observation and measurement of fluorescence intensity of intramitochondrial ROS were performed using DHR123.
The HK-2 cells were seeded into a black 24-well plate to be 2.0×10^4 cells/well and cultured for 24 hours. Next, BSO and DHMBA were added in an amount of 500 μL/well to have a final concentration of BSO of 100 μM and a final concentration of DHMBA of 250 μM and 500 μM. After 24 hours, a supernatant was removed, a DHR123 reagent (FUJIFILM Wako Pure Chemical Corporation) diluted to 5 μM with serum-free DMEM was added in an amount of 250 μL/well, and the cells were cultured at 37° C. for 40 minutes.
Furthermore, after the cells were washed with PBS, 500 μL of PBS was added, observation was performed, and photos were taken using a fluorescence microscope BZ-9000 (Keyence). Then, after the cells were peeled from the bottom with a scraper and pipetted sufficiently, an amount of 200 μL/well was moved to a black 96-well plate, and fluorescence was measured using a plate reader (Wallac 1420 ARVO Mx plate reader) at an excitation wavelength of 505 nm and a fluorescence wavelength of 534 nm (n=6 for each group).

Data set [5] deals with BIK and ENDOG genes in HK-2 cells. The data set is described as follows: qPCR expression of cell and mitochondrial damage-related genes. Type of data set: cell-based, human. Particulars: 24 hours. From the text:
Under oxidative stress stimulation, ENDOG that resides in a mitochondrion migrates to the nucleus and acts on nuclear DNA fragmentation. In addition, when nuclear DNA is damaged, BIK increases and acts with intramitochondrial factors, inducing apoptosis, a type of cell death (Li L Y, et al., Nature, 412:95-99, 2001; Kutuk O, et al., PLOS One, 12: e0182809, 2017).
Therefore, in the present invention, the effect of DHMBA on cell death markers BIK and ENDOG, which increase under oxidative stress stimulation, was verified.
The HK-2 cells were seeded into a 6-well plate to be 5.0×10^4 cells/well and cultured for 24 hours. Next, BSO and DHMBA were added in an amount of 2 mL/well to have a final concentration of BSO of 100 μM and a final concentration of DHMBA of 250 μM and 500 μM. After 24 hours, total RNA extraction was recovered using a NucleoSpin (registered trademark) RNA kit (MACHEREY-NAGEL). The concentration of purified RNA was quantified by the Nanodrop (Invitrogen). From 1.0 μg of total RNA, cDNA was synthesized according to the protocol of ReverTra ACE (registered trademark) qPCR RT Master Mix with gDNA Remover (TOYOBO). The gene expression levels were measured according to the protocol of THUNDERBIRD (registered trademark) SYBR (registered trademark) qPCR Mix (TOYOBO). The measurement was performed using the CFX Connect™ Real-Time PCR Detection System (BioRad), and analysis was performed by the 2^−(ΔΔCT) method.
A comparison was performed with the gene expression level of the control group as 1. The figure was expressed as a mean value±SD (n=4 for each group). Each expression level was corrected by the expression level of β-actin, which is a housekeeping gene.
For orientation: In qPCR the cycle at which signal appears reflects the starting amount.

Data set [6] has as its system mitochondria of HK-2 cells. Description: Mitochondrial morphology observation (MitoTracker Green FM / Hoechst 33342). Format: cell-based, human. Particulars: 24 hours. On the procedure:
Excessively produced ROS induces mitochondrial fission, causing mitochondrial fragmentation and dysfunction (Zorov D, et al., Cells, 8:175, 2019). In order to observe whether or not DHMBA influences mitochondrial morphological changes under oxidative stress stimulation, double staining of mitochondria and nuclei was performed using MitoTracker (registered trademark) Green FM (Thermo Fisher Scientific), which reacts to mitochondrial membrane potential differences, and Hoechst 33342 (DOJINDO LABORATORIES), which binds to nuclear DNA.
The HK-2 cells were seeded into 35 mm dishes to be 5.0×10^4 cells/dish and cultured for 24 hours. Next, BSO and DHMBA were added in an amount of 2 mL/well to have a final concentration of BSO of 100 μM and a final concentration of DHMBA of 250 μM and 500 μM. After 24 hours, a mixed solution of 0.1 μM MitoTracker (registered trademark) Green FM and 5 μg/mL Hoechst 33342 was added in an amount of 2 mL/dish, and the cells were cultured at 37° C. for 20 minutes and washed with PBS. Afterwards, 1 mL of PBS was added, and fluorescence images were obtained at 100 times using a fluorescence microscope BZ-9000 (Keyence).

The test system of data set [7] is mitochondria of HK-2 cells. Description: Mitochondrial respiration capacity (oxygen consumption rate, extracellular flux analyzer XFp). Type of data set: cell-based, human. On the procedure:
The action of DHMBA improving mitochondrial respiration capacity under oxidative stress was examined using an extracellular flux analyzer XFp (Agilent Technologies).
The HK-2 cells were seeded into the XFp Cell Culture Miniplate (Agilent Technologies) to be 1.5×10^4 cells/well and cultured for 24 hours. Next, BSO and DHMBA were added in an amount of 200 μL/well to have a final concentration of BSO of 100 μM and a final concentration of DHMBA of 250 μM and 500 μM. After 24 hours of culture, the culture medium was replaced with a running culture medium (XF DMEM Medium, pH 7.4, Agilent Technologies) containing 20 mM GlutaMAX (Gibco), 10 mM Pyruvate (Gibco), and glucose (10 mM), and the cells were cultured for one hour in an incubator at 37° C. without CO2 control. A 24-hour hydrated calibration plate was placed on an extracellular flux analyzer XFp and calibrated. After the calibration was completed, the calibration plate and the cell plate were exchanged, and the oxygen consumption rate (OCR) was measured. The basal respiration rate was measured first, and subsequently, oligomycin (final concentration: 2 μM) was added to inhibit ATP production. Next, FCCP (final concentration: 1 μM) was added, and the maximal respiration rate was measured. Finally, rotenon/antimycin A (final concentration: 0.25 μM) was added, and the respiration rate independent of mitochondria was measured. Each measurement was performed three times for all measurements.

The test system of data set [8] is PPARα/PGC1α/NRF1/TFAM pathway genes in HK-2 cells. Description: qPCR expression of mitochondrial biosynthesis-related genes. To be noted: co-treatment with 100 μM BSO, DHMBA 250 μM and 500 μM. Type of data set: cell-based, human. Here is the method: It has been reported that mitochondrial biosynthesis is regulated through activation of the PPARα/PGC1α/NRF1/TFAM pathway (Uittenbogaard M and Chiaramello A, Current pharmaceutical design, 20:[…], 2014).
The expression levels of genes related to mitochondrial biosynthesis were measured in a similar manner to that described above. A comparison was performed with the control group as 1. The figure was expressed as a mean value±SD (n=3 for each group). Each expression level was corrected by the expression level of β-actin.

Data set [9] relates to OPA1, DRP1 and FIS1 genes in HK-2 cells. The data set is described as follows: qPCR expression of mitochondrial fusion- and fission-related genes. To be noted: co-treatment with 100 μM BSO, DHMBA 250 μM and 500 μM. Type of data set: cell-based, human. Here is the method:
The expression levels of genes related to mitochondrial fusion (OPA1) and genes related to fission (DRP1 and FIS1) were measured in a similar manner to that described above. A comparison was performed with the control group as 1. The figure was expressed as a mean value±SD (n=4 for each group). Each expression level was corrected by the expression level of β-actin.

A further data set deals with Keap1-Nrf2 pathway. Particulars: cited from earlier work.
Where [10] appears, read: 100 μM BSO alone (oxidative stress stimulation).
Where [11] appears, read: co-treatment with 100 μM BSO, DHMBA 250 μM and 500 μM.
Where [12] appears, read: 100 μM BSO and 500 μM DHMBA, 24 hours, OCR.

For `CCCCS(=N)(=O)CCC(N)C(=O)O` (centres unmarked) [BSO, buthionine sulfoximine, reference compound], the cytotoxicity entry in data set [1] (100 μM BSO alone (0 μM DHMBA)) is recorded as “strong cytotoxicity”. For the same compound, the cell viability entry in data set [2] (100 μM BSO alone (0 μM DHMBA), CCK-8) was “low cell viability”. The “intracellular ROS” value in data set [3] (100 μM BSO alone) is reported as “increase in intracellular ROS”. For the same compound, the “ROS accumulation in mitochondria” value in data set [4] (100 μM BSO alone) is “ROS accumulation in mitochondria was also observed”. Also, in data set [5] (setting [10]), the “expression level of BIK gene” value is listed as “increased” and the “expression level of ENDOG gene” value was “increased”. Besides, the “mitochondrial fragmentation (morphology)” value in [6] (setting [10]) is on record as “mitochondrial fragmentation was induced”. The “damage to mitochondrial functions (OCR)” value in data set [7] (100 μM BSO alone, 24-hour addition) is recorded as “not recognized”.
In the case of `COc1c(O)cc(CO)cc1O` [DHMBA, 3,5-dihydroxy-4-methoxybenzyl alcohol], in [1] (co-treatment with 100 μM BSO, DHMBA 1 μM to 500 μM), the “DHMBA concentration that inhibited cytotoxicity” value is no less than 3.9 µM. In addition, the “DHMBA concentration that increased cell viability” value in data set [2] (co-treatment with 100 μM BSO, CCK-8, DHMBA 1 μM to 500 μM) was no less than 3.9 µM. In addition, in [3] (setting [11]), the “production level of intracellular ROS” value is reported as “decreased to the same level as that of the control group”. Also, in data set [4] (setting [11]), the “accumulation of intramitochondrial ROS” value is “inhibited”. For the same compound, in data set [5] (setting [11]), the “expression level of BIK gene” value is “decreased to the same levels as those of the control group” and the “expression level of ENDOG gene” value is “decreased to the same levels as those of the control group”. In data set [8], the “expression level of PGC1α” value is “increased” and the “expression level of TEAM” value was “increased”. The “mitochondrial fragmentation (morphology)” value in [6] (setting [11]) is given as “fragmented mitochondria decreased”. For the same compound, the “expression level of FIS1” value in [9] is on record as “reduced”. Further, in data set [7] (setting [12]), the “mitochondrial ATP production” value is recorded as “increased”, the mitochondrial basal respiration entry was “increased” and the mitochondrial maximal respiration result was “increased”. The “cytotoxicity compared with existing antioxidant substances” value with Keap1-Nrf2 pathway (earlier finding, background art) is reported as “less cytotoxic than existing antioxidant substances”. Moreover, the “activation of radical scavenging ability and the Keap1-Nrf2 pathway, expression induction of antioxidant gene clusters (such as HO-1 and NQO1)” value in the data set with Keap1-Nrf2 pathway (literature (Fuda 2015; Joko 2017)) is reported as “confirmed”.

The values above are taken from patent US20250387348A1, “NEPHROPROTECTIVE USEFUL AGENT” (WATANABE OYSTER LABORATORY, CO., LTD., priority 2022, published 2025).
